# Key:
# [1] = tested on: anti-3MGA MAb; test: competitive ELISA cross-reactivity of anti-3MGA MAb; assay type: binding, mouse; conditions: CR = IC50 for 3MGA / IC50 for compound x 100, 3MGA calibrated as 100%
# Protocol: To activate the hapten 3MGA for the preparation of anti-3MGA MAb, the 3MGA-KLH conjugate was synthesized by using a model based on the carbodiimide method with both EDC and NHS reagents. 3MGA-HSA was also prepared using the same method, and was used for ELISA. We also evaluated the hapten number of the 3MGA-HSA conjugate by MALDI-TOF MS analysis. […] The MAb was developed by using the same methods described in our previous study. Hybridomas secreting antibodies recognizing 3MGA were selected by ELISA and then subcloned 4 times by the limited dilution method. […] The heavy chain of the obtained MAb was classified using a Calbiochem mouse hybridoma subisotyping kit (EMD Biosciences, Darmstadt, Germany), whereas the light chain was estimated using an IsoQuick^TM mouse monoclonal isotyping strip (Sigma) according to the manufacturer’s instructions.
# 3MGA-HSA (1 µg/ml in 50 mM carbonate buffer, pH 9.6) was added into a 96-well plate (Nagel Nunc, Penfield, NY, USA) (100 µl/well), and incubated at 37 °C for 1 h. After the removal of 3MGA-HSA, the wells were washed with 200 µl/well PBS containing 0.05% Tween 20 (T-PBS) for 3 times. The wells were incubated with 300 µl/well of 5% skim milk (Morinaga-milk, Tokyo, Japan) at 4 °C overnight. […] After the wells were washed with T-PBS 3 times, HRP-labeled goat anti-mouse IgG (Fc specific) antibody (1:1,000 dilution with T-PBS) was added into the wells (100 µl/well), and the plate was incubated at 37 °C for 1 h. Next, the wells were washed with T-PBS 3 times, the substrate solution (0.006% H2O2 in 200 mM citrate buffer, pH 4.0/H2O/0.6 mg/ml ABTS 10:9:1) was added into the wells (100 µl/well), and incubated at room temperature for 15 min.
# [2] = pharmacokinetic profile of 3MGA in EHBRs orally treated with GA (50 mg/kg); assay type: in vivo; conditions: Eisai Hyperbilirubinemia rats (EHBR), rat, plasma; female EHBRs, GA 50 mg/kg oral; read-out: time of maximum plasma concentration
# Protocol: Female EHBRs (8 or 9-week-old) were orally treated with GA (50 mg/kg) suspended in 0.5% CMC, and kept in metabolic cages. Blood samples (approximately 0.3 ml) were collected from the tail 1, 2, 3, 6, 12, 24, and 48 h after the oral treatment. Urine samples were collected 6, 12, 24, and 48 h after the oral treatment. The concentrations of 3MGA in the samples were measured by both ELISA and LC-MS/MS described in our previous paper. Ten µl aliquots of plasma or urine from rats treated with GA, or standard solution of 3MGA in plasma or urine collected from normal rats were mixed with 20 µl of 1:1,000 diluted subtilisin, and incubated at 37 °C for 30 min. After adding 70 µl of EtOH containing 10 µg/ml of PHB used as internal standard, the solution was applied into the system. The mass spectrometer used an electrospray ionization source in the positive ion mode with multiple reaction monitoring (ESI(+)MS-MRM). The analytical column was an Inertsil ODS-4, 2 mm i.d. ×75 mm, 3 µm (GL Sciences Inc., Tokyo, Japan). […] The transitions (precursor to daughter) monitored and retention times were 647.4 to 453.5 m/z for 3MGA (4.4 min) and 195.2 to 139.0 m/z for PHB (4.8 min). […]
# [3] = target: T1, rat 11β-HSD2 (Rattus norvegicus, UniProt P50233); conditions: previous study; cited from earlier work
# T1 construct: kidney microsome fractions were obtained from male Wistar rats (7-week-old); from tissue; host or cells: rat kidney microsome fraction (male Wistar rats)
# T1 sequence (P50233 1-400): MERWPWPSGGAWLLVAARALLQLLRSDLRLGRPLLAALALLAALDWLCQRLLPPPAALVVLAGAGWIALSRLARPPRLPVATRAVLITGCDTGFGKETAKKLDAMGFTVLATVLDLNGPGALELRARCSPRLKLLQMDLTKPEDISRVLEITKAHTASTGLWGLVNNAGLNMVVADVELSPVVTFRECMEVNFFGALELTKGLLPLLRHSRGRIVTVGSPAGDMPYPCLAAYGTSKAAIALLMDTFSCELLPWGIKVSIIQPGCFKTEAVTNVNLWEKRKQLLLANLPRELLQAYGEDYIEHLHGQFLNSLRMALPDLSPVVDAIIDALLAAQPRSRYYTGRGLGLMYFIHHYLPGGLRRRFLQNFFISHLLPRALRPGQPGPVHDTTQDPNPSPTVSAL
# [4] = target: T2, OAT1 (Homo sapiens, UniProt Q4U2R8); conditions: cited from earlier work
# T2 construct: expressed in transfected cells
# T2 sequence (Q4U2R8 1-563): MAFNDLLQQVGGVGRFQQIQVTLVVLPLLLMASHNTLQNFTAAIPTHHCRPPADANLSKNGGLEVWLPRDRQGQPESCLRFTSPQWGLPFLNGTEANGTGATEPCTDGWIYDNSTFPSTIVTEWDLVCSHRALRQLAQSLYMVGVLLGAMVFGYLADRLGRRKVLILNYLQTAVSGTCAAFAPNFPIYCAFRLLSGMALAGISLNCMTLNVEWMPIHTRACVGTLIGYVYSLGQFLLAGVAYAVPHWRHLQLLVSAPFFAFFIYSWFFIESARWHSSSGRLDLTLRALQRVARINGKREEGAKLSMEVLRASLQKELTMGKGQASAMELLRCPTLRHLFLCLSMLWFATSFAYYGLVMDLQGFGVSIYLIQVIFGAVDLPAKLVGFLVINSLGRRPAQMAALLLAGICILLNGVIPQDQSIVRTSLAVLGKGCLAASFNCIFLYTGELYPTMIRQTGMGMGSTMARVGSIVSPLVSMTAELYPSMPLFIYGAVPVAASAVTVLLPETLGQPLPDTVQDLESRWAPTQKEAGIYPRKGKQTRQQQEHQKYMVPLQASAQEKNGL
# [5] = target: T3, OAT3 (Homo sapiens, UniProt Q8TCC7); conditions: cited from earlier work
# T3 construct: expressed in transfected cells
# T3 sequence (Q8TCC7 1-542): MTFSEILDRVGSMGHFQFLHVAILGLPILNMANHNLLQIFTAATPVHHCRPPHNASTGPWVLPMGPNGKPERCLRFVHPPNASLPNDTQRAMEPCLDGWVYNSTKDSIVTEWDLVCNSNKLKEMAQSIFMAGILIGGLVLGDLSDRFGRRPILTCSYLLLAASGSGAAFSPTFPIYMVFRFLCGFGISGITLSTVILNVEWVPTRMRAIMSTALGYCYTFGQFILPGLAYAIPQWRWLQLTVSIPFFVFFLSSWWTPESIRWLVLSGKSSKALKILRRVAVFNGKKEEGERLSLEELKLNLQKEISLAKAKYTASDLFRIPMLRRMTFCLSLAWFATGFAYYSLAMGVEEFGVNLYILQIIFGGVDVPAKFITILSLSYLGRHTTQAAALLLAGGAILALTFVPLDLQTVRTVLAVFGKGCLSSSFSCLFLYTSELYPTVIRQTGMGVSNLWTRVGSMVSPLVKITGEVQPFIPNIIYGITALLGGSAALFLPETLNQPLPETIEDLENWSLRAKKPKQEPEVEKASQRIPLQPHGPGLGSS
smiles,measurement,setting,value
"CC1(C)[C@@H](O[C@@H]2O[C@H](C(=O)O)[C@@H](O)[C@H](O)[C@H]2O)CC[C@]2(C)[C@H]3C(=O)C=C4[C@@H]5C[C@@](C)(C(=O)O)CC[C@]5(C)CC[C@@]4(C)[C@]3(C)CC[C@@H]12 [Compound 3MGA, 3-monoglucuronyl glycyrrhetinic acid]",cross-reactivity of anti-3MGA MAb,[1],100%
same,Tmax,[2],6 h
same,IC50,[3],260 nM
same,substrate of OAT1,[4],is a substrate
same,substrate of OAT3,[5],is a substrate

# Source: publication PMC6197257 (Scientific Reports, 2018)
